Laboratory results published in patent publication US8158764B2 (priority 2006, dated 2012).
Where “and” joins values, the source holds several entries; their conditions need not be identical. Equal values may be shown once.

Experiments:
κ receptors = biological target: T1, κ receptors (Cavia porcellus, UniProt P41144); experiment: Affinity to κ receptors, [3H]U-69593 binding on cerebellum homogenates; parameters: species or system guinea-pigs; settings: for Ki: guinea-pig cerebellum, 0.7 nM [3H]U-69593, read-out: Ki (nM) κ Receptor
T1 construct: homogenates of guinea-pigs cerebellum (250 μg of protein); from tissue; host or cells: guinea-pig cerebellum
T1 sequence (P41144 whole entry): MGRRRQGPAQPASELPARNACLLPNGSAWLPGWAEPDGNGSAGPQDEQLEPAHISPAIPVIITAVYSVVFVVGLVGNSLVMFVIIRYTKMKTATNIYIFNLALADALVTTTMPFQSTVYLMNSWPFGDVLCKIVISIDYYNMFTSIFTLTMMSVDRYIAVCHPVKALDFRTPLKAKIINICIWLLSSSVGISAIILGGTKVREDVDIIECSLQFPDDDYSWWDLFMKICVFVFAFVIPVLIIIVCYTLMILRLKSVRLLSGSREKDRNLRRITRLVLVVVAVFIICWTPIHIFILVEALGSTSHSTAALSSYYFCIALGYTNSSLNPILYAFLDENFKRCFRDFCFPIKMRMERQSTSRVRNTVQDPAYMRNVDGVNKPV
Method: (§1) The non specific binding was determined in the presence of 10 μM of naltrexone. After incubation, samples were rapidly filtered through glass fibers (GF/B, Packard), previously incubated with 0.3% of polyethyleneimine and rinsed several times with 50 mM of cold Tris-HCl using a “96-sample cell harvester” (Unifilter, Packard). Filters were afterwards dried and the radioactivity was counted.

human μ receptors = biological target: T2, human μ receptors (Homo sapiens, UniProt P35372); experiment: biochemical; assay type: binding
T2 construct: expressed in transfected cells; host or cells: HEK-293
T2 sequence (P35372 whole entry): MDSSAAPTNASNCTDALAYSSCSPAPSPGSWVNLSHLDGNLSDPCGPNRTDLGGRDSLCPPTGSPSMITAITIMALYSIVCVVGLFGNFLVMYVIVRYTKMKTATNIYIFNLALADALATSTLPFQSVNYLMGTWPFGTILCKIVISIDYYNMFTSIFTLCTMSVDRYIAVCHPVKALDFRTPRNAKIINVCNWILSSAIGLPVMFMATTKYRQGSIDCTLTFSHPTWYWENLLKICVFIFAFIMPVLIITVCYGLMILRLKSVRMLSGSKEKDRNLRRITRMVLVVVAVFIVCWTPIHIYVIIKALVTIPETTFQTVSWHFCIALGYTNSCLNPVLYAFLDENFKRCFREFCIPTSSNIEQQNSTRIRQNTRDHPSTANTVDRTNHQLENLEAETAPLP

[1] = Activity and toxicity of the 3-methoxy derivative (test not specified); settings: in words
[2] = Hot plate test (analgesic activity); assay type: in vivo; settings: mouse, intravenous
[3] = Tail flick test (analgesic activity); assay type: in vivo, mouse; parameters: AUC, tail flick test: unit not given here; settings: for duration of the analgesic activity compared with morphine: in words, tail flick and hot plate tests; for ED50 / Max Effect (time), tail flick test: mouse, intravenous
Method: The “Tail flick” test (test of D'Amour & Smith, 1941, Pharmacol Exp Ther; 72: 74-79) consists in placing the tail of a mouse, after administration of a product, in front of an infrared source in order to produce a nociceptive stimulus (a surface temperature of 55° C.). The reaction time (RT) of the mouse (latency between the start of the light beam and the moment the mouse withdraws its tail) was measured in duplicate at 8 times spread from […] after administration of the product. A maximal 10 second-period has been chosen as the maximal reaction time in order to avoid any tissue damage for the animal.
Products were intravenously-administered at doses comprised between 0.5 and 8 mg/kg (8 mice per group).
Two measures of reaction time were realized before administration of the product for each mouse so as to establish a base line.
The MPE % represents the percentage of possible maximal effect and corresponds to the following formula: […]

δ receptors = biological target: T3, δ receptors (Homo sapiens, UniProt P41143); experiment: Affinity to δ receptors, [3H]DADLE binding on cell membrane homogenates (CHO cells)
T3 construct: expressed in transfected cells; host or cells: CHO
T3 sequence (P41143 whole entry): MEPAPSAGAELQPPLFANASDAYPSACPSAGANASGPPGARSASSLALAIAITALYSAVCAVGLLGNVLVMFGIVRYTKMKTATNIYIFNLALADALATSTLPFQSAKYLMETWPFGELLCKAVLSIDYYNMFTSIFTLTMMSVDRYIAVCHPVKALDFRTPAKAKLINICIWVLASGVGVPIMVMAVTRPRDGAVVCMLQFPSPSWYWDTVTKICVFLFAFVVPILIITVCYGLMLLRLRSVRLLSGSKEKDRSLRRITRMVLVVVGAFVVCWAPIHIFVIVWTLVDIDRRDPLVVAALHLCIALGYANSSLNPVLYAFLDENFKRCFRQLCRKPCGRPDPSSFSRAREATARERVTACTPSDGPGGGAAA
Method: as §1

κ receptor [4] = biological target: T4, κ receptor (Oryctolagus cuniculus, UniProt G1SJ19); experiment: Antagonist activity on κ receptor, electrically stimulated rabbit vas deferens; assay type: biochemical
T4 construct: using prostatic segments of rabbits' deferens vas; from tissue; host or cells: rabbit vas deferens (prostatic segments)
T4 sequence (G1SJ19 1-383): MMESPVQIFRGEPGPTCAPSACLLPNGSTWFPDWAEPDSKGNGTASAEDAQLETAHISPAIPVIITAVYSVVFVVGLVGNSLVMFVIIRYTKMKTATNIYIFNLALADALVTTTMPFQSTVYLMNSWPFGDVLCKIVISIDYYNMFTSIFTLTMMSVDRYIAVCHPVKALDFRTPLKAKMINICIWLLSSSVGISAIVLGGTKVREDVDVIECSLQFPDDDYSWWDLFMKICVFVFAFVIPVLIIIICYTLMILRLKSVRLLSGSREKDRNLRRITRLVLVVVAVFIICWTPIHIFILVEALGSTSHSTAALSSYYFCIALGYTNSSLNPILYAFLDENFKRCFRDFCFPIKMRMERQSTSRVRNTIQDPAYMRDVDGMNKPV
Method: The agonist/antagonist activity on K receptors of compounds according to the invention was estimated by using prostatic segments of rabbits' deferens vas, stretched and stimulated by an electric current of 0.1 Hz during 1 msec.
In order to test an antagonist activity, a response control (peak of contraction of the tissue) was obtained by exposing tissues to a high concentration (0.1 μM) in specific agonist U-69593.
Tissues were then exposed to growing concentrations of the compound according to the invention or to the specific agonist. The various concentrations were cumulated and each concentration was maintained in contact with the tissue until a stable response was obtained or up to […].
An antagonist response was observed when the amplitude of peaks of contractions provoked by electric stimulation was similar to the one observed with the nor-BNI.
The measured parameter was a maximal change of amplitude of the peaks of contractions provoked by electric stimulation with various concentrations of the compound.

[5] = Intestinal transit in mice
κ receptor [6] = biological target: T4, κ receptor; assay type: biochemical, rabbit

SMILES | Ki (κ receptors) [nM] | Ki (human μ receptors) [nM] | ED50 [2] [mg/kg] | Effet max (time), hot plate test [2] [min] | AUC, tail flick test ([3]; dose 1 mg/kg iv) | AUC, tail flick test ([3]; dose 2 mg/kg iv) | AUC, tail flick test ([3]; dose 4 mg/kg iv) | AUC, tail flick test ([3]; dose 8 mg/kg iv) | duration of the analgesic activity compared with morphine [3] | ED50 [3] [mg/kg] | Max Effect (time), tail flick test [3] [min] | other results
COc1ccc2c3c1OC1C(OC4OC(C(=O)NCCS)C(O)C(O)C4O)C=CC4C(C2)N(C)CCC341 (centres unmarked) [Compound C6G-cya] | 100 | 11 |  |  |  |  |  |  |  |  |  | activity of the 3-methoxy substituted compound [1]: inactive; toxicity of the 3-methoxy substituted compound [1]: toxic
CCOc1ccc2c3c1OC1C(OC4OC(C(=O)NCCS)C(O)C(O)C4O)C=CC4C(C2)N(C)CCC341 (centres unmarked) [Compound M3Et-6G-cya] | 220 | 13 | 2.75 | 120 | 1047.85 | 2538.93 | 5012.90 | 6059.22 | much longer | 2.04 | 120 | 
CCOc1ccc2c3c1O[C@H]1[C@@H](O[C@@H]4O[C@H](C(=O)NCCSSCCC(=O)Nc5cccc6c7c([nH]c56)[C@@H]5Oc6c(O)ccc8c6[C@@]56CCN(CC5CC5)[C@H](C8)[C@]6(O)C7)[C@@H](O)[C@H](O)[C@H]4O)C=CC4[C@@H](C2)N(C)CC[C@@]341 (some centres unmarked) [M3Et-6G-cya-3MP-NTI] |  |  |  |  |  | 2576 | 4410 | 5733 |  | 2.9 | 120 | 
CCOc1ccc2c3c1OC1C(OC4OC(C(=O)NCCSSCCNC(=O)C5OC(OC6C=CC7C8Cc9ccc(OCC)c%10c9C7(CCN8C)C6O%10)C(O)C(O)C5O)C(O)C(O)C4O)C=CC4C(C2)N(C)CCC341 (centres unmarked) [M3Et-6G-cya-cya-M3Et-6G] | 25 | 14 | 1.35 | 120 | 1233.75 | 4824.51 | 5915.16 | 5817.46 | much longer | 1.32 | 120 | Ki (δ receptors): > 1000 nM; improvement of affinity for κ receptors (factor) (κ receptors; compared with morphine): 6; antagonist activity: response in % of the response control at U-69593 (0.1 μM) (κ receptor [4]; compound 0.03 μM): 100%; antagonist activity: response in % of the response control at U-69593 (0.1 μM) (κ receptor [4]; compound 0.3 μM): 100%; antagonist activity: response in % of the response control at U-69593 (0.1 μM) (κ receptor [4]; compound 3 μM): 92%; antagonist activity: response in % of the response control at U-69593 (0.1 μM) (κ receptor [4]; compound 30 μM): 71%; agonist/antagonist behaviour on κ receptor (κ receptor [4]; in words): behaves as a κ receptor antagonist; transit inhibition ([5]; at the maximal analgesic effect after iv injection at ED50): about 90%; analgesia when transit speed becomes normal ([5]; between 10 and 12 hours after injection): 50%; effect on transit while analgesic activity is maintained at maximum ([5]; in words): transit only slows down; agonist activity: response in % of the response control at U-69593 (κ receptor [6]): 0% and −4% and −3%; AUC, tail flick test ([3]; dose 0.5 mg/kg iv): 617.79; duration of maximum analgesic activity ([3]; injected at two-fold ED50, no supplementary dose): at least 6 hours
Oc1ccc2c3c1O[C@H]1c4[nH]c5c(c4C[C@@]4(O)[C@@H](C2)N(CC2CC2)CC[C@]314)C[C@@]1(O)[C@H]2Cc3ccc(O)c4c3[C@@]1(CCN2CC1CC1)[C@H]5O4 [nor-BNI, nor-binaltorphimine, reference compound] |  |  |  |  |  |  |  |  |  |  |  | antagonist activity: response in % of the response control at U-69593 (0.1 μM) (κ receptor [4]; compound 0.1 nM): 80%; antagonist activity: response in % of the response control at U-69593 (0.1 μM) (κ receptor [4]; compound 0.3 nM): 55%; antagonist activity: response in % of the response control at U-69593 (0.1 μM) (κ receptor [4]; compound 1 nM): −1%
